Reference: patent publication US9061994B1, “Materials and methods useful to induce vacuolization, cell death, or a combination thereof” (The University of Toledo, priority 2011, dated 2015)
Entries after “also recorded” stand apart in the source; their conditions may differ. Read-outs that look alike come from different tables or passages of the source.

Experiments:
Format in all cases: cell-based, human
U251 glioblastoma cells [1] = assay: Sulforhodamine B (SRB) growth inhibition assay; conditions: for GI50: Homo sapiens; for growth inhibitory (GI) activity, in words: 48 h SRB, Table 1, Table 2 (FIG. 64), FIG. 63
Description: Cells experiencing methuosis initially undergo extreme cytoplasmic vacuolization which can be readily assessed by phase contrast microscopy. As viability is compromised (usually between 24-48 h), the cells detach from the culture surface and lose membrane integrity. […] Although methuosis can occur in a broad spectrum of human tumor cell lines, SAR studies were carried out with U251 glioblastoma cells. Therefore, this cell line was used in the present evaluation.
Total protein in adherent cells was measured by the sulforhodamine B (SRB) colorimetric assay, following standard procedures for anticancer drug screening used by the U.S. National Cancer Institute. […] On the day after plating, four wells were assayed to establish a pre-drug (time-0) baseline. Test compounds were diluted as described above and added to the remaining wells. The medium and compounds were replenished after 24 hr. SRB assays were performed at a 48 h endpoint as described, using a SpectraMax Plus 384 plate reader (Molecular Devices, Sunnyvale, Calif.) to determine absorbance at 515 nm.
Cells were seeded in 96-well plates as described in the methods. After 24 h, each compound was added at the indicated concentrations and SRB assays were performed after an additional 48 h. Each point represents the mean±SD of values from four wells. The dotted line on each graph indicates the average absorbance of four wells sampled at time-0 (i.e., the time that the compounds were added).
The human U251 glioblastoma cell line was obtained from the DCT Tumor Repository (National Cancer Institute, Fredrick, Md.). […] All test compounds were dissolved in DMSO and serially diluted in DMSO so that the desired final drug concentrations could be achieved by making a 1/1000 dilution into the culture medium. One day after plating, four wells were assayed to establish a pre-drug (time-0) baseline. At the same time, fresh medium containing test compounds was added to the remaining wells. Control wells received DMSO alone. SRB assays were performed at a 48 h endpoint. To minimize the impact of potential variations in stability among the compounds, medium with test compound was replenished after the first 24 h.

U251 glioblastoma cells [2] = assay: Trypan blue dye-exclusion viability assay; conditions: for cell viability, in words: 10 μM, 2 days; for viability at 10 µM: Homo sapiens, U-251, 48 h, each compound at 10 μM for 2 days, mean ± SD of three cultures
Description: To directly compare the effects of different compounds on cell viability, the trypan blue dye-exclusion assay was utilized to distinguish live (unstained) from dead (blue) cells. U251 cells were seeded in 35 mm diameter dishes at a density of 100,000 cells/dish. Twenty-four hours later, test compounds were added in fresh medium at a final concentration of […] received an equivalent volume of vehicle (DMSO). […] At the end of the incubation, floating and adherent cells were combined and collected by centrifugation. Cells were washed with Hank's balanced salt solution (HBSS) and incubated with 0.2% trypan blue solution (Sigma, St. Louis, Mo.) for 5 min at room temperature. The percentage of dead cells was determined by light microscopy using a hemocytometer. Three separate cultures were assayed for each compound.
Cells were seeded in 35 mm dishes and treated for 48 h with compounds at a final concentration of […] blue dye-exclusion assays were performed as described in the methods. Values are the mean±SD of separate assays performed on three parallel cultures.

U251 glioblastoma cells [3] = assay: Cell morphology / vacuolization by phase-contrast microscopy
U251 glioblastoma cells [4] = assay: SAR comparison of methuosis induction (vacuolization, MTT viability, colony formation) versus MIPP; conditions: 10 μM, morphology 24 h and 48 h, MTT 48 h, colony formation (FIGS. 36, 48)
Source text: Analogs based on the α,β-unsaturated ketone core were designed from Claisen-Schmidt condensations between indole-3-carboxaldehydes and aromatic ketones. Such aldol condensations are known to proceed well employing secondary amines as catalysts. Initially, the orientation of the pyridine nitrogen was investigated.

[5] = concentration not singled out ([…] and 10 μM or as in figure)

CCCc1[nH]c2ccc(OC)cc2c1/C=C/C(=O)c1ccncc1 [107b, trans-3-(5-methoxy-2-propylindol-3-yl)-1-(4-pyridinyl)-2-propen-1-one]
GI50 (U251 glioblastoma cells [1]; U-251, 48 h, read-out: GI50): 15.3 µM
cell viability, in words (U251 glioblastoma cells [2]): only minimally affected
viability at 10 µM (U251 glioblastoma cells [2]): 83.9 ± 2.3%
cell morphology / vacuolization (U251 glioblastoma cells [3]; 10 μM): extensively vacuolated

COc1ccc2[nH]c(C(C)C)c(/C=C/C(=O)c3ccncc3)c2c1 [107c, trans-3-(2-isopropyl-5-methoxyindol-3-yl)-1-(4-pyridinyl)-2-propen-1-one]
GI50 (U251 glioblastoma cells [1]; U-251, 48 h, read-out: GI50): > 20 µM
cell viability, in words (U251 glioblastoma cells [2]): only minimally affected
viability at 10 µM (U251 glioblastoma cells [2]): 78.8 ± 1.1%
cell morphology / vacuolization (U251 glioblastoma cells [3]; 10 μM): extensively vacuolated

COc1ccc2[nH]c(CC(C)C)c(/C=C/C(=O)c3ccncc3)c2c1 [107d, trans-3-(2-isobutyl-5-methoxyindol-3-yl)-1-(4-pyridinyl)-2-propen-1-one]
GI50 (U251 glioblastoma cells [1]; U-251, 48 h, read-out: GI50): 16.6 µM
cell viability, in words (U251 glioblastoma cells [2]): only minimally affected
viability at 10 µM (U251 glioblastoma cells [2]): 87.4 ± 1.5%
cell morphology / vacuolization (U251 glioblastoma cells [3]; 10 μM): extensively vacuolated

CCCCOc1ccc2[nH]c(C)c(/C=C/C(=O)c3ccncc3)c2c1 [402d, trans-3-(5-butoxy-2-methylindole-3-yl)-1-(4-pyridinyl)-2-propen-1-one]
growth inhibitory (GI) activity, in words (U251 glioblastoma cells [1]; U251): markedly reduced; also recorded: complete lack of GI activity
cell morphology / vacuolization (U251 glioblastoma cells [3]; [5]): produced much fewer and smaller vacuoles and had little effect on cell density

Cc1[nH]c2ccc(N)cc2c1/C=C/C(=O)c1ccncc1 [402g, trans-3-(5-amino-2-methylindol-3-yl)-1-(4-pyridinyl)-2-propen-1-one]
growth inhibitory (GI) activity, in words (U251 glioblastoma cells [1]; U251): no GI activity in the concentration range tested
cell morphology / vacuolization (U251 glioblastoma cells [3]; 10 μM): did cause vacuolization after 48 h

NCc1ccc2[nH]cc(/C=C/C(=O)c3ccncc3)c2c1 [402i, trans-3-(5-aminomethylindol-3-yl)-1-(4-pyridinyl)-2-propen-1-one]
growth inhibitory (GI) activity, in words (U251 glioblastoma cells [1]; U251): completely inactive in both growth inhibition and vacuolization assays
cell morphology / vacuolization (U251 glioblastoma cells [3]; [5]): completely inactive in both growth inhibition and vacuolization assays

O=C(/C=C/c1c[nH]c2ccccc12)c1ccccc1 [compound 9, trans-3-(1H-indol-3-yl)-1-phenyl-2-propen-1-one]
methuosis-inducing activity compared with compound 2 (MIPP) (U251 glioblastoma cells [4]): relatively ineffective at inducing methuosis compared with MIPP

O=C(/C=C/c1c[nH]c2ccccc12)c1ccccn1 [compound 10, trans-3-(1H-indol-3-yl)-1-(2-pyridinyl)-2-propen-1-one]
methuosis-inducing activity compared with compound 2 (MIPP) (U251 glioblastoma cells [4]): relatively ineffective at inducing methuosis compared with MIPP

O=C(/C=C/c1c[nH]c2ccccc12)c1cccnc1 [compound 11, trans-3-(1H-indol-3-yl)-1-(3-pyridinyl)-2-propen-1-one]
methuosis-inducing activity compared with compound 2 (MIPP) (U251 glioblastoma cells [4]): relatively ineffective at inducing methuosis compared with MIPP

COc1ccc2[nH]cc(/C=C/C(=O)c3ccncc3)c2c1 [compound 13, trans-3-(5-methoxy-1H-indol-3-yl)-1-(4-pyridinyl)-2-propen-1-one]
GI50 (U251 glioblastoma cells [1]; U-251, 48 h, read-out: GI50): 18.6 µM
cell viability, in words (U251 glioblastoma cells [2]): only minimally affected
viability at 10 µM (U251 glioblastoma cells [2]): 91.2 ± 0.7%
cell morphology / vacuolization (U251 glioblastoma cells [3]; 10 μM): extensively vacuolated

CCc1[nH]c2ccc(OC)cc2c1/C=C/C(=O)c1ccncc1 [compound 107a, trans-3-(2-ethyl-5-methoxyindol-3-yl)-1-(4-pyridinyl)-2-propen-1-one]
GI50 (U251 glioblastoma cells [1]; U-251, 48 h, read-out: GI50): 3.2 µM
GI50 (U251 glioblastoma cells [1]; U-251, U251, dose-response curves repeated six more times (Table 1 footnote g), read-out: GI50, means (±SD) for all seven determinations): 2.8 µM
growth inhibitory (GI) activity, in words (U251 glioblastoma cells [1]; U251): not statistically different from the MOMIPP
cell viability, in words (U251 glioblastoma cells [2]): substantial loss of cell viability
viability at 10 µM (U251 glioblastoma cells [2]): 34.6 ± 1.1%
cell morphology / vacuolization (U251 glioblastoma cells [3]; 10 μM): morphological effects indistinguishable from those observed with the same concentration of MOMIPP

COc1ccc2[nH]c(C)c(/C=C/C(=O)c3cccnc3)c2c1 [meta-MOMIPP, trans-3-(5-methoxy-2-methylindol-3-yl)-1-(3-pyridinyl)-2-propen-1-one]
GI50 (U251 glioblastoma cells [1]; U-251, 48 h, read-out: GI50): 16.9 µM
viability at 10 µM (U251 glioblastoma cells [2]): 96.2 ± 1.3%
cell morphology / vacuolization (U251 glioblastoma cells [3]; 10 μM): did not accumulate vacuoles
